# Target: IgE-Tb / sFcεRIα-Y131A-AF488 (Homo sapiens, UniProt P01854, N146Q/N252Q)
# Experiment: IgE-Tb / sFcεRIα-Y131A-AF488 FRET assay (protocol for examples 234 to 501)
# Assay type: binding
# Conditions: examples 234 to 501: compound with IgE-Tb 30 minutes before sFcεRIα-Y131A-AF488, incubated 18 hours at room temperature; read-out: Y131A FRET IC50 range
# Experimental: For examples 234 to 501, the assay was conducted according to the following: Each assay reaction was conducted in a volume of 25 μl in a 384-well half-volume plate. 10 point compound serial dilutions (3-fold) were generated in DMSO at a concentration of ×50 that of the final assay concentration (FAC). Compound solutions were then prepared by diluting 10-fold in assay buffer. For the assay, 5l of diluted compound was added to 10 μl of IgE-Tb and incubated for 30 minutes before the addition of 10 μ[…]. FRET reagents FACs were 5 nM IgE-Tb, 25 nM […]. Usually the top FAC of compound in the assay was 10 μM. The final DMSO concentration was 2%. […] The maximum FRET signal (MAX) was measured in wells containing FRET reagents but no compound. The assay was incubated for 18 hours at room temperature, protected from light and evaporation, and with gentle agitation. Measurement of FRET for each well was carried out by exciting at 337 nm and measuring emission at 490/520 nm using a PHERAstar FSX plate reader (BMG Labtech). FRET ratio was calculated as follows: Emission at 520/7Emission at 490×1000. The FRET ratio was used for the data analysis. […] Z' above 0.5 was considered a good assay. Background signal (MIN) was subtracted from all wells. […] Percent inhibition was plotted against compound concentration. IC50 values for each compound were determined using four parameter logistic fit model using the XLFIT5 software package.
# IgE-Tb / sFcεRIα-Y131A-AF488, sequence (P01854 whole entry N146Q/N252Q): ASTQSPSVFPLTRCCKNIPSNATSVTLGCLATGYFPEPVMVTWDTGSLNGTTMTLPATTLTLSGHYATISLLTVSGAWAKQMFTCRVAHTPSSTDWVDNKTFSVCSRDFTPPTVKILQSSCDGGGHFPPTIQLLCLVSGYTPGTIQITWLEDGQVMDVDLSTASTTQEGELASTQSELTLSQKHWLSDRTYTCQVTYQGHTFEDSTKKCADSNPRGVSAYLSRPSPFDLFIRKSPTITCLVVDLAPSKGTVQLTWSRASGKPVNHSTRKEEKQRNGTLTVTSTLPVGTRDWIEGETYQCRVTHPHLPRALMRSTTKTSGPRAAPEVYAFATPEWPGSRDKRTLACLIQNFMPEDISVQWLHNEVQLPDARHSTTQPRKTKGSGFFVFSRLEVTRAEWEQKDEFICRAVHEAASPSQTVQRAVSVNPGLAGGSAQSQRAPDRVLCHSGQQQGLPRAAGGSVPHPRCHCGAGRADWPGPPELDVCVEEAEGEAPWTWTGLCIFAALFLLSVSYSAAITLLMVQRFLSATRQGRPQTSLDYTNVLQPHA
row,SMILES,IC50
1,"Cn1nc(C(F)F)cc1Nc1nncn1[C@H]1CCc2sc(NC(=O)[C@H]3C[C@H](F)C3)c(C(=O)NC[C@H]3CC3(F)F)c2C1 (relative stereo) [Example 472, (5S)—N-[[(1R*)-2,2-difluorocyclopropyl]methyl]-5-[3-[[5-(difluoromethyl)-2-methyl-pyrazol-3-yl]amino]-1,2,4-triazol-4-yl]-2-[trans-(3-fluorocyclobutanecarbonyl)amino]-4,5,6,7-tetrahydrobenzothiophene-3-carboxamide [* or S]]",< 1 µM
2,"Cn1nc(C(F)F)cc1Nc1nncn1[C@H]1CCc2sc(NC(=O)[C@H]3CC3(F)F)c(C(=O)NC[C@H]3C[C@H]3F)c2C1 (relative stereo) [Example 498, (5S)-2-[[(1R*)-2,2-difluorocyclopropanecarbonyl]amino]-5-[3-[[5-(difluoromethyl)-2-methyl-pyrazol-3-yl]amino]-1,2,4-triazol-4-yl]-N-[[(1R,2R)-2-fluorocyclopropyl]methyl]-4,5,6,7-tetrahydrobenzothiophene-3-carboxamide (* or S)]",< 1 µM
3,"Cc1cc(Nc2nncn2[C@H]2CCc3sc(NC(=O)[C@H]4CC45CC5)c(C(=O)NCC4CC4)c3C2)n(C)n1 (relative stereo) [Example 500, (5S)—N-(cyclopropylmethyl)-5-[3-[(2,5-dimethylpyrazol-3-yl)amino]-1,2,4-triazol-4-yl]-2-[[(2S*)-spiro[2.2]pentane-2-carbonyl]amino]-4,5,6,7-tetrahydrobenzothiophene-3-carboxamide (* or R)]",< 1 µM
4,"O=C(NCC1CC1)c1c(NC(=O)C2CC2)sc2c1C[C@@H](n1cnnc1NC1CCS(=O)(=O)C1)CC2 (single isomer, unassigned) [Example 234, (5S)-2-(cyclopropanecarbonylamino)-N-(cyclopropylmethyl)-5-[3-[[(3S*)-1,1-dioxothiolan-3-yl]amino]-1,2,4-triazol-4-yl]-4,5,6,7-tetrahydrobenzothiophene-3-carboxamide]",< 1 µM
5,"Cc1c(Nc2nncn2[C@H]2CCc3sc(NC(=O)C4CC4)c(C(=O)NCC4CC4)c3C2)cccc1[S@@](C)(=N)=O (single isomer, unassigned) [Example 236]",< 1 µM
6,"Cc1c(Nc2nncn2[C@H]2CCc3sc(NC(=O)C4CC4)c(C(=O)NCC4CC4)c3C2)cccc1[S@](C)(=N)=O (single isomer, unassigned) [Example 237]",< 1 µM
7,"CC(=O)N1CC[C@](C)(Nc2nncn2[C@H]2CCc3sc(NC(=O)C4CC4)c(C(=O)NCC4CC4)c3C2)C1 (single isomer, unassigned) [Example 239, (5S)-5-[3-[[(3*)-1-acetyl-3-methyl-pyrrolidin-3-yl]amino]-1,2,4-triazol-4-yl]-2-(cyclopropanecarbonylamino)-N-(cyclopropylmethyl)-4,5,6,7-tetrahydrobenzothiophene-3-carboxamide]",< 1 µM
8,"CC1CN(S(C)(=O)=O)CC1Nc1nncn1[C@H]1CCc2sc(NC(=O)C3CC3)c(C(=O)NCC3CC3)c2C1 (single isomer, unassigned) [Example 242]",< 1 µM
9,"C[S@](=N)(=O)c1cccc(Nc2nncn2[C@H]2CCc3sc(NC(=O)C4CC4)c(C(=O)NCC4CC4)c3C2)c1 (single isomer, unassigned) [Example 253]",< 1 µM
10,"C[S@@](=N)(=O)c1cccc(Nc2nncn2[C@H]2CCc3sc(NC(=O)C4CC4)c(C(=O)NCC4CC4)c3C2)c1 (single isomer, unassigned) [Example 254]",< 1 µM
11,"CS(=O)(=O)c1cccc(Nc2nncn2[C@H]2CCc3sc(NC(=O)C4CC45CC5)c(C(=O)NCC4CC4)c3C2)n1 (single isomer, unassigned) [Example 256, (5S)—N-(cyclopropylmethyl)-5-[3-[(6-methylsulfonyl-2-pyridyl)amino]-1,2,4-triazol-4-yl]-2-[[(2S*)-spiro[2.2]pentane-2-carbonyl]amino]-4,5,6,7-tetrahydrobenzothiophene-3-carboxamide]",< 1 µM
12,"CC1CCCCC1Nc1nncn1[C@H]1CCc2sc(NC(=O)C3CC3)c(C(=O)NCC3CC3)c2C1 (single isomer, unassigned) [Example 269]",< 1 µM
13,"O=C1CC(Nc2nncn2[C@H]2CCc3sc(NC(=O)C4CC4)c(C(=O)NCC4CC4)c3C2)CN1 (single isomer, unassigned) [Example 271, (5S)-2-(cyclopropanecarbonylamino)-N-(cyclopropylmethyl)-5-[3-[[(3R*)-5-oxopyrrolidin-3-yl]amino]-1,2,4-triazol-4-yl]-4,5,6,7-tetrahydrobenzothiophene-3-carboxamide]",< 1 µM
14,"CC1C(Nc2nncn2[C@H]2CCc3sc(NC(=O)C4CC4)c(C(=O)NCC4CC4)c3C2)CCN1S(C)(=O)=O (single isomer, unassigned) [Example 274]",< 1 µM
15,"Cc1ccc(C2CC(Nc3nncn3[C@H]3CCc4sc(NC(=O)C5CC5)c(C(=O)NCC5CC5)c4C3)C2)cn1 (single isomer, unassigned) [Example 276]",< 1 µM
16,"Cn1nc(C(F)F)cc1Nc1nncn1[C@H]1CCc2sc(NC(=O)C3CC3(F)F)c(C(=O)NC[C@H]3C[C@H](F)C3)c2C1 (single isomer, unassigned) [Example 278, (5S)-2-[[(1R*)-2,2-difluorocyclopropanecarbonyl]amino]-5-[3-[[5-(difluoromethyl)-2-methyl-pyrazol-3-yl]amino]-1,2,4-triazol-4-yl]-N-[trans-(3-fluorocyclobutyl)methyl]-4,5,6,7-tetrahydrobenzothiophene-3-carboxamide]",< 1 µM
17,"Cn1nc(OC(F)F)cc1Nc1nncn1[C@H]1CCc2sc(NC(=O)C3CC3(F)F)c(C(=O)N[C@H]3C[C@H](F)C3)c2C1 (single isomer, unassigned) [Example 279, (5S)-2-[[(1R*)-2,2-difluorocyclopropanecarbonyl]amino]-5-[3-[[5-(difluoromethoxy)-2-methyl-pyrazol-3-yl]amino]-1,2,4-triazol-4-yl]-N-(trans-3-fluorocyclobutyl)-4,5,6,7-tetrahydrobenzothiophene-3-carboxamide]",< 1 µM
18,"Cn1nc(OC(F)F)cc1Nc1nncn1[C@H]1CCc2sc(NC(=O)C3CC3(F)F)c(C(=O)NC[C@H]3C[C@H](F)C3)c2C1 (single isomer, unassigned) [Example 280, (5S)-2-[[(1R*)-2,2-difluorocyclopropanecarbonyl]amino]-5-[3-[[5-(difluoromethoxy)-2-methyl-pyrazol-3-yl]amino]-1,2,4-triazol-4-yl]-N-[trans-(3-fluorocyclobutyl)methyl]-4,5,6,7-tetrahydrobenzothiophene-3-carboxamide]",< 1 µM
19,"Cn1nc(OC(F)F)cc1Nc1nncn1[C@H]1CCc2sc(NC(=O)C3CC3(F)F)c(C(=O)NC[C@@H]3C[C@@H]3F)c2C1 (single isomer, unassigned) [Example 281, (5S)-2-[[(1S*)-2,2-difluorocyclopropanecarbonyl]amino]-5-[3-[[5-(difluoromethoxy)-2-methyl-pyrazol-3-yl]amino]-1,2,4-triazol-4-yl]-N-[[(1S,2S)-2-fluorocyclopropyl]methyl]-4,5,6,7-tetrahydrobenzothiophene-3-carboxamide]",< 1 µM
20,"Cn1nc(C(F)F)cc1Nc1nncn1[C@H]1CCc2sc(NC(=O)C3CC3(F)F)c(C(=O)NCC3CC3(F)F)c2C1 (single isomer, unassigned) [Example 282]",< 1 µM
21,"Cn1nc(C(F)F)cc1Nc1nncn1[C@H]1CCc2sc(NC(=O)C3CC3(F)F)c(C(=O)NCC3CC3(F)F)c2C1 (single isomer, unassigned) [Example 283]",< 1 µM
22,"O=C(NCC1CC1)c1c(NC(=O)C2CC2)sc2c1C[C@@H](n1cnnc1NC1CCC3(CCN(c4ncccn4)C3)C1)CC2 (single isomer, unassigned) [Example 289]",< 1 µM
23,"Cn1nc(OC(F)F)cc1Nc1nncn1[C@H]1CCc2sc(NC(=O)[C@H]3C[C@H]3F)c(C(=O)NCC3CC3)c2C1 (single isomer, unassigned) [Example 349]",< 1 µM
24,"Cn1nc(OC(F)F)cc1Nc1nncn1[C@H]1CCc2sc(NC(=O)[C@@H]3C[C@@H]3F)c(C(=O)NCC3CC3)c2C1 (single isomer, unassigned) [Example 350]",< 1 µM
25,"Cn1nc(C(F)F)cc1Nc1nncn1[C@H]1CCc2sc(NC(=O)[C@@H]3C[C@@H]3F)c(C(=O)NCC3CC3)c2C1 (single isomer, unassigned) [Example 362]",< 1 µM
26,"Cn1nc(C(F)F)cc1Nc1nncn1[C@H]1CCc2sc(NC(=O)[C@H]3C[C@H]3F)c(C(=O)NCC3CC3)c2C1 (single isomer, unassigned) [Example 363]",< 1 µM
27,"Cn1nc(C(F)F)cc1Nc1nncn1[C@H]1CCc2sc(NC(=O)[C@@H]3C[C@H]3F)c(C(=O)NCC3CC3)c2C1 (single isomer, unassigned) [Example 367]",< 1 µM
28,"Cn1nc(OC(F)F)cc1Nc1nncn1[C@H]1CCc2sc(NC(=O)[C@H]3C[C@@H]3F)c(C(=O)NC[C@H]3CC3(F)F)c2C1 (single isomer, unassigned) [Example 374]",< 1 µM
29,"Cn1nc(OC(F)F)cc1Nc1nncn1[C@H]1CCc2sc(NC(=O)[C@H]3C[C@@H]3F)c(C(=O)NC[C@@H]3CC3(F)F)c2C1 (single isomer, unassigned) [Example 375]",< 1 µM

# Source: patent US12018021B2 (UCB Biopharma SRL, priority 2018, dated 2024)
